What was measured:
Type in all cases: cell-based
[1] = system: A2780; assay: MTT assay, second set of experiments (Experiment 4), single agents; conditions: Homo sapiens
Procedure: (§1) Inhibition of Cell-Growth and Viability […]: The MTT reagent kit was purchased from Boehringer Mannheim (Roche Diagnosis Corp, Indianapolis, Ind.) to count viable cells. […] The protocol for the cell viability assay was provided by the manufacturer and modified in our laboratory as described below: Ovarian cancer cells were seeded in 96 well microtiter plates at a concentration of 6×10^3 cells per well, in a volume of 100 μL of cell culture medium. After 24 hours, 20 μL aliquots of the compounds at various concentrations were added to the attached cells. Each concentration was plated into 3 wells to obtain mean values. To eliminate any solvent effect, 20 μL of the solvent used in the preparation of the highest concentration of the compounds (a maximum of 0.5% by volume of DMSO) was added to the control cells in each well. The plates were incubated at 37° C. in the CO2 incubator for 72 hours. At the end of day 3, the culture medium was carefully removed without disturbing the cells, and replaced by 100 μL of fresh cell medium. 10 μL of MTT reagent was added to each well and the plates were incubated again in the CO2 incubator at 37° C. for 4 hours. 100 μL of SDS solubilising reagent (from Boehringer Mannheim) was added to each well. The plate was allowed to stand overnight in the CO2 incubator and read by ELISA Reader (EL800, Bio-Tek Instruments, Inc.) at a wavelength of 570 nm. The percent cell viability was calculated according to the equation below: 100% (absorption of the control cells-absorption of the treated cells)/absorption of the control cells. A second set of experiments were carried out showing how the compounds in the formulations of the invention act in synergy with one another. The experimental results differ slightly from those reported above as the experimental work was carried out in a different laboratory and under slightly different conditions. In the second set of experiments the MTT reagent kit was purchased from Sigma-Aldridge in the UK and, due to time constraints; the cells were only incubated overnight prior to being treated with the drugs. The cell lines were also of different origin (the second set being obtained directly from Dr Marianne Poruch of the NIH, Bethesda Md., USA) and may have been subjected to different conditions during storage.

[2] = system: PTX10; assay: as above; conditions: Homo sapiens, PTX10 (taxol-resistant)
Procedure: as §1

[3] = system: human ovarian cancer cell lines A2780 (sensitive) and PTX-10 (resistant to taxol); assay: Antiproliferative activity, MTT cell viability assay, first set of experiments (72 h), comparison of the two cell lines; conditions: A2780 versus taxol-resistant PTX-10
Excerpt: The present investigation uses two types of cancer cells: A2780 and PTX-10. A2780 is typical of most human ovarian cancers and is not known to be drug-resistant. PTX10 is a taxol-resistant variant of A2780. These two cell types provide a model to compare the effectiveness of the compositions of the present invention against a typical ovarian human cancer where taxol would be a useful treatment and a tumour line where taxol is not useful in treatment.
Cell lines: A2780 and PTX-10 cell lines were from National Institute of Health, Bethesda, Md.
Cell Culture: Both cell lines were cultured in RPMI 1640 supplemented with 10% foetal bovine serum, L-glutamine and antibiotics according to the method of Halicka et al. (Int. J. Oncology 1:437-48, 1997). All media, supplements, and antibiotics were obtained from Life Technologies (Grand Island, N.Y.). The cultures were periodically tested for Mycoplasma infection.
To maintain asynchronous exponential growth, these adherent cells were routinely seeded at 3×10^5 in a T-75 flask and incubated at 37° C. in 5% CO2 for 5-6 days and then repassaged at a 1:10 dilution by trypsinisation (0.25% trypsin/1 mM EDTA). Morphological changes and cell counts of the control and treated cancer cells were determined by light microscopy. Only exponentially and asynchronously growing cells were used in all experiments.
Inhibition of Cell-Growth and Viability AssASYS: The MTT reagent kit was purchased from Boehringer Mannheim (Roche Diagnosis Corp, Indianapolis, Ind.) to count viable cells. […] The protocol for the cell viability assay was provided by the manufacturer and modified in our laboratory as described below: […]
The plates were incubated at 37° C. in the CO2 incubator for 72 hours. […] The plate was allowed to stand overnight in the CO2 incubator and read by ELISA Reader (EL800, Bio-Tek Instruments, Inc.) at a wavelength of 570 nm. The percent cell viability was calculated according to the equation below: 100% (absorption of the control cells−absorption of the treated cells)/absorption of the control cells. […]

Structure (SMILES) | IC50 [1] [nM] | IC50 [2] [nM] | relative sensitivity of the cell lines (dose-response curves, antiproliferative activity) [3]
C=C1C(=O)[C@]23[C@H](O)[C@H]1CC[C@H]2[C@@]12CO[C@]3(O)[C@@H](O)[C@@H]1C(C)(C)CC[C@@H]2O [Formula I, oridonin] | 810 ± 130 | 4720 ± 3700 | A2780 cell line is more sensitive
COc1c(O)cc(O)c2c(=O)cc(-c3ccccc3)oc12 [Formula III, wogonin] | 670 ± 230 | 590 ± 380 | PTX-10 cell line is slightly more sensitive
O=C(/C=C/c1ccc(O)cc1)c1ccc(O)cc1O [Formula V, isoliquiritigenin] | 2400 ± 420 | 300 ± 130 | PTX-10 cell line is more sensitive

Source: US9089546B2, “Synergistic compositions consisting essentially of combinations of active agents selected from oridonin, wogonin, and isoliquiritigenin for the prevention of neoplasia” (ACTIVEPHYTO TECHNOLOGIES LIMITED, priority 2006, dated 2015)
